In patent US20060122153A1, “Antineoplastic ether lipid compounds with modifications at the sn-2 carbon” (priority 2003, published 2006):
“And” between values parts separate entries of the source, which are not always exact repeats. Equal values may be shown once.

Tests used:
[1] = system: NIH-3T3; assay: In vitro growth inhibition (GI50), SRB assay, normal fibroblast; assay type: cell-based, mouse; conditions: NIH-3T3 normal murine fibroblast cell line, 3 days
Source text: The following cell lines were selected from the cell bank for screening and GI50 studies: MCF-7: human breast tumor, MCF-7/ADR: MCF-7 adriamycin resistant subline, HT-29: human colon carcinoma, A-549: human non-small cell lung cancer, NIH-3T3: mouse Swiss embryo fibroblast and WI-38: human lung fibroblast, SKMEL-28: human melanoma, Lewis Lung: mouse lung carcinoma, DU-145: prostate carcinoma, B16F10: mouse melanoma, L1210: murine lymphocytic leukemia, P-388: murine leukemia, U-937: human histolytic lymphoma. Except HT-29, WI-38, NIH-3T3 and Lewis Lung which were obtained from the American Type Culture Collection (Rockville, Md.) all the other cell lines were obtained from National Cancer Institute—Frederick Research Facility (Frederick, Md.). All the cell lines were grown in RPMI-1640 medium containing 10% fetal bovine serum (FBS) except WI-38 and DU-145 which were grown in EMEM+10% FBS at 37° C., 5% CO2 and 100% humidity and NIH-3T3, Lewis Lung, B16F10 and L1210 which were grown in DMEM containing 10% FBS (10% HS for L1210). […]
The test compounds were made in-house and the compounds were dissolved PBS or saline at a stock concentration of approximately 20 mM, which is 400 times the desired final maximum test concentration. […] After 3 days of incubation, cell growth was determined.
The SRB assay was performed as described by Monks, A., Scudiero, D., Skehan, P., Shoemaker, R., Paull, K., Vistica, D., Hose, C., Langley, J., Cronise, P., and Vaigro-Wolff, A. Feasibility of a high-flux anticancer drug screen using a diverse panel of cultured human tumo-r cell lines. […] Bound SRB was solubilized with Tris buffer (10 mM), and the ODs were read using an automated plate reader (Bio-Rad, Model 3550-UV) at 490 nm. Background values were subtracted from the test data, and the data was calculated as a % of control. […] Percentage growth was calculated as described by, Peters, A. C., Ahmad, I., Janoff, A. S., Pushkareva, M. Y., and Mayhew, E. Growth Inhibitory effects of liposome-associated 1-o-octadecyl-2-o-methyl-sn-glycero-3-phosphocholine. […]

[2] = system: B16/F10 melanoma; assay: B16/F10 murine melanoma (iv./iv.) therapeutic model; assay type: in vivo, mice; conditions: iv. treatment, lung tumor nodules
Method: Female C57/BL6 mice (5/group) were inoculated iv. with 5×10^4 cells in 0.2 mL PBS (day 0). On days 10, 12, 14, 16, & 18 post-tumor inoculation, mice were treated iv. with the ether lipid to be tested, along with ELL-12 (L), D-EL, L-EL or Control (0.9% NaCl). Mice were sacrificed by carbon dioxide inhalation on day 22, lungs were excised, inflated and fixed with 10% Formalin. Lungs were counted “blind” for tumor nodules using a magnifier. The mean number of nodules per treatment group was determined.

[3] = system: HOP-62; assay: NCI growth inhibition screen, non-small cell lung panel; assay type: cell-based, human; conditions: for Performance as compared to ET-18-O—CH3: HOP-62, NS cell lung, from GI50s; for activity compared to other compounds (in words): HOP-62 cells, NCI screen
Method: (§1) Candidates deemed suitable for in vivo testing were then synthesized in large scale quantities and some of this material was sent to the NCI's Developmental Therapeutics Program for a battery of growth inhibitory studies against various human tumor cell lines (60 cell lines, 9 different panels). The remainder of the material was used to assess in vivo efficacy using murine tumor models. Additionally, studies were conducted on the lead candidates to discern mechanism of action with particular emphasis on these agents apoptotic ability as measured by caspase 3 activity. The details (materials and methods) for these various assays are described further in the following discussion.
(§2) Ten compounds were also sent to NCI's Drug Discovery Program for screening against numerous human tumor cell lines (9 panels total: renal ovarian, colon, CNS, non-small cell lung, leukemia, breast, melanoma, and prostate). The data are shown in FIGS. 2a-i which also include data regarding D- and L-ET-18-OCH3 (listed as L-EL and D-EL in the figures). Upon examining the data, one is struck by how 1R and 1a′S standout in comparison to the other compounds, especially for the renal, ovarian, colon, and CNS panels.

[4] = system: CCRF-CEM; assay: NCI growth inhibition screen, leukemia panel; assay type: cell-based, human; design: key: = means equivalent activity; + means that it appears to be significantly better (i.e., by ˜2x); < means it appears to be less active than ET18OCH3 (˜2x); a combination like =/+ or </+ means that activity is dependent upon the isomer; a combination like =/+ or </+ means that activity is dependent upon the isomer; conditions: from GI50s
Method: as §1, §2

[5] = system: HL-60; assay: NCI growth inhibition screen, leukemia panel; assay type: cell-based, human; design: key: = means equivalent activity; + means that it appears to be significantly better (i.e., by ˜2x); < means it appears to be less active than ET18OCH3 (˜2x); a combination like =/+ or </+ means that activity is dependent upon the isomer; a combination like =/+ or </+ means that activity is dependent upon the isomer; conditions: HL-60, Leukemia; from GI50s
Method: as §1, §2

[6] = system: MOLT-4; assay: NCI growth inhibition screen, leukemia panel; assay type: cell-based, human; design: key: = means equivalent activity; + means that it appears to be significantly better (i.e., by ˜2x); < means it appears to be less active than ET18OCH3 (˜2x); a combination like =/+ or </+ means that activity is dependent upon the isomer; a combination like =/+ or </+ means that activity is dependent upon the isomer; conditions: MOLT-4, Leukemia; from GI50s
Method: as §1, §2

SMILES	GI50 [1]	activity against B16/F10 in mice (in words) [2]	Performance as compared to ET-18-O—CH3 [3]	activity compared to other compounds (in words) [3]	Performance as compared to ET-18-O—CH3 [4]	Performance as compared to ET-18-O—CH3 [5]	Performance as compared to ET-18-O—CH3 [6]
CCCCCCCCCCCCCCCCCCOC[C@@H](COP(=O)([O-])OCC[N+](C)(C)C)OS(C)(=O)=O [1a′S]	30.3 µM and 35.2 µM	exhibited activity	+/=	better than a few of the other compounds	0	0	0
CCCCCCCCCCCCCCCCCCOCC(COP(=O)([O-])OCC[N+](C)(C)C)OS(C)(=O)=O (centres unmarked) [Compound 1aR]		no activity	+/=	better than a few of the other compounds	=	=	=
CCCCCCCCCCCCCCCCCCOCC(COP(=O)([O-])OCC[N+](C)(C)C)OC [D-ET18OCH3, 1-O-octadecyl-2-O-methyl-glycerophosphocholine, reference compound]	41.4 µM						
